Measurements published in the NIST ThermoML archive (doi:10.1016/j.jct.2015.12.018).
± gives the expanded uncertainty stated by the source.

Assay: molar enthalpy of vaporization or sublimation
Details: 298.15 K; Crystal; Static calorimetry

| molar enthalpy [kJ/mol] | Structure (SMILES) |
| --- | --- |
| 88.4 ± 4.4 | O=C1OCc2ccccc21 [1(3H)-isobenzofuranone] |
| 87.9 ± 4.7 | O=C1OC(=O)c2ccccc21 [isobenzofuran-1,3-dione] |
